Reference: ChEMBL document CHEMBL3046848, “Synthesis and biological evaluation of novel series of thieno[2,3-d]pyrimidine derivatives as anticancer and antimicrobial agents” (2013)

Experiments:
Format in all cases: functional
[1] = system: U-251; assay: Growth inhibition of Homo sapiens (human) U251 cells at 10 uM after 48 hr by SRB assay; conditions: U-251, 48 h, read-out: GI
[2] = system: PC-3; assay: Anticancer activity against Homo sapiens (human) PC3 cells after 48 hr by SRB assay; conditions: PC-3, 48 h
[3] = system: SF-539; assay: Anticancer activity against Homo sapiens (human) SF539 cells after 48 hr by SRB assay; conditions: SF-539, 48 h
[4] = system: HL-60(TB); assay: Anticancer activity against Homo sapiens (human) HL-60(TB) cells after 48 hr by SRB assay; conditions: HL-60, 48 h
[5] = system: MDA-MB-231; assay: Anticancer activity against Homo sapiens (human) MDA-MB-231/ATCC cells after 48 hr by SRB assay; conditions: MDA-MB-231, 48 h
[6] = system: Pseudomonas aeruginosa; assay: Antimicrobial activity against Pseudomonas aeruginosa ATCC9027 assessed as diameter of growth inhibition zone at 1 mg/ml after 24 hr by agar cup diffusion method; conditions: ATCC9027, 24 h, read-out: IZ
[7] = system: SF-268; assay: Growth inhibition of Homo sapiens (human) SF268 cells at 10 uM after 48 hr by SRB assay; conditions: SF-268, 48 h, read-out: GI
[8] = system: U-251; assay: Anticancer activity against Homo sapiens (human) U251 cells after 48 hr by SRB assay; conditions: U-251, 48 h
[9] = system: HCT-15; assay: Anticancer activity against Homo sapiens (human) HCT15 cells after 48 hr by SRB assay; conditions: HCT-15, 48 h
[10] = system: HT-29; assay: Anticancer activity against Homo sapiens (human) HT-29 cells after 48 hr by SRB assay; conditions: HT-29, 48 h
[11] = system: ACHN; assay: Anticancer activity against Homo sapiens (human) ACHN cells after 48 hr by SRB assay
[12] = system: OVCAR-8; assay: Anticancer activity against Homo sapiens (human) OVCAR8 cells after 48 hr by SRB assay; conditions: OVCAR-8, 48 h
[13] = system: LOX IMVI; assay: Anticancer activity against Homo sapiens (human) LOXIMVI cells after 48 hr by SRB assay
[14] = system: SNB-75; assay: Growth inhibition of Homo sapiens (human) SNB75 cells at 10 uM after 48 hr by SRB assay; conditions: SNB-75, 48 h, read-out: GI
[15] = system: T47D; assay: Growth inhibition of Homo sapiens (human) T47D cells at 10 uM after 48 hr by SRB assay; conditions: read-out: GI
[16] = system: OVCAR-4; assay: Anticancer activity against Homo sapiens (human) OVCAR4 cells after 48 hr by SRB assay; conditions: OVCAR-4, 48 h
[17] = system: SK-MEL-2; assay: Growth inhibition of Homo sapiens (human) SK-MEL-2 cells at 10 uM after 48 hr by SRB assay; conditions: SK-MEL-2, 48 h, read-out: GI
[18] = system: UACC-257; assay: Growth inhibition of Homo sapiens (human) UACC257 cells at 10 uM after 48 hr by SRB assay; conditions: UACC-257, 48 h, read-out: GI
[19] = system: SW-620; assay: Anticancer activity against Homo sapiens (human) SW620 cells after 48 hr by SRB assay; conditions: SW-620, 48 h
[20] = system: A498; assay: Anticancer activity against Homo sapiens (human) A498 cells after 48 hr by SRB assay; conditions: A498, 48 h
[21] = system: HOP-62; assay: Anticancer activity against Homo sapiens (human) HOP62 cells after 48 hr by SRB assay; conditions: HOP-62, 48 h
[22] = system: OVCAR-4; assay: Growth inhibition of Homo sapiens (human) OVCAR4 cells at 10 uM after 48 hr by SRB assay; conditions: OVCAR-4, 48 h, read-out: GI
[23] = system: NCI-H460; assay: Growth inhibition of Homo sapiens (human) NCI-H460 cells at 10 uM after 48 hr by SRB assay; conditions: NCI-H460, 48 h, read-out: GI
[24] = system: UACC-257; assay: Anticancer activity against Homo sapiens (human) UACC257 cells after 48 hr by SRB assay; conditions: UACC-257, 48 h
[25] = system: K562; assay: Growth inhibition of Homo sapiens (human) K562 cells at 10 uM after 48 hr by SRB assay; conditions: K562, 48 h, read-out: GI
[26] = system: LOX IMVI; assay: Growth inhibition of Homo sapiens (human) LOXIMVI cells at 10 uM after 48 hr by SRB assay; conditions: read-out: GI
[27] = system: NCI-H322M; assay: Anticancer activity against Homo sapiens (human) NCI-H322M cells after 48 hr by SRB assay
[28] = system: CCRF-CEM; assay: Anticancer activity against Homo sapiens (human) CCRF-CEM cells after 48 hr by SRB assay
[29] = system: HCC 2998; assay: Anticancer activity against Homo sapiens (human) HCC2998 cells after 48 hr by SRB assay; conditions: HCC 2998, 48 h
[30] = system: HT-29; assay: Growth inhibition of Homo sapiens (human) HT-29 cells at 10 uM after 48 hr by SRB assay; conditions: HT-29, 48 h, read-out: GI
[31] = system: NCI-H226; assay: Growth inhibition of Homo sapiens (human) NCI-H226 cells at 10 uM after 48 hr by SRB assay; conditions: NCI-H226, 48 h, read-out: GI
[32] = system: RXF 393; assay: Anticancer activity against Homo sapiens (human) RXF393 cells after 48 hr by SRB assay; conditions: RXF 393, 48 h
[33] = system: HOP-92; assay: Anticancer activity against Homo sapiens (human) HOP92 cells after 48 hr by SRB assay; conditions: HOP-92, 48 h
[34] = read-out: LC50 (the source's name)

## Cc1c(C(N)=O)sc2nc(C)n(/N=c3\scc(-c4ccccc4)n3Cc3ccccc3)c(=O)c12
[1]
  inhibition of growth at 10 µM: 92.2%
[2]
  GI50: 2.15 µM
  TGI: 8.31 µM
[2]; [34]
  CC50: > 100 µM
[3]
  GI50: 4.02 µM
  TGI: > 100 µM
[3]; [34]
  CC50: > 100 µM
[4]
  GI50: 6.68 µM
  TGI: > 100 µM
[4]; [34]
  CC50: > 100 µM
[5]
  GI50: 3.28 µM
  TGI: 8.41 µM
[5]; [34]
  CC50: > 100 µM
[6]
  zone of inhibition at 1000 µg/mL: 17 mm
[7]
  inhibition of growth at 10 µM: 78.7%
[8]
  GI50: 3.31 µM
  TGI: > 100 µM
[8]; [34]
  CC50: > 100 µM
[9]
  GI50: 2.64 µM
  TGI: > 100 µM
[9]; [34]
  CC50: > 100 µM
[10]
  GI50: 3.04 µM
  TGI: > 100 µM
[10]; [34]
  CC50: > 100 µM
[11]
  GI50: 2.86 µM
  TGI: > 100 µM
[11]; [34]
  CC50: > 100 µM
[12]
  GI50: 3.49 µM
  TGI: > 100 µM
[12]; [34]
  CC50: > 100 µM
[13]
  GI50: 3.54 µM
  TGI: > 100 µM
[13]; [34]
  CC50: > 100 µM
[14]
  inhibition of growth at 10 µM: 45.2%
[15]
  inhibition of growth at 10 µM: 65.3%
[16]
  GI50: 2.5 µM
  TGI: > 100 µM
[16]; [34]
  CC50: > 100 µM
[17]
  inhibition of growth at 10 µM: 90%
[18]
  inhibition of growth at 10 µM: 95.2%
[19]
  GI50: 3.16 µM
  TGI: > 100 µM
[19]; [34]
  CC50: > 100 µM
[20]
  GI50: 2.53 µM
  TGI: 8.97 µM
[20]; [34]
  CC50: > 100 µM
[21]
  GI50: 2.82 µM
  TGI: 9.47 µM
[21]; [34]
  CC50: > 100 µM
[22]
  inhibition of growth at 10 µM: 66.5%
[23]
  inhibition of growth at 10 µM: 92.5%
[24]
  GI50: 3.56 µM
  TGI: 24.3 µM
[24]; [34]
  CC50: > 100 µM
[25]
  inhibition of growth at 10 µM: 91.6%
[26]
  inhibition of growth at 10 µM: 79.4%
[27]
  GI50: 3.71 µM
  TGI: > 100 µM
[27]; [34]
  CC50: > 100 µM
[28]
  GI50: 34.2 µM
  TGI: > 100 µM
[28]; [34]
  CC50: > 100 µM
[29]
  GI50: 3.05 µM
  TGI: > 100 µM
[29]; [34]
  CC50: > 100 µM
[30]
  inhibition of growth at 10 µM: 20.5%
[31]
  inhibition of growth at 10 µM: 69.1%
[32]
  GI50: 3.43 µM
  TGI: > 100 µM
[32]; [34]
  CC50: > 100 µM
[33]
  GI50: 1.34 µM
  TGI: 5.33 µM
[33]; [34]
  CC50: > 100 µM
